Experiments:
[1] = Cytotoxicity assay in LLCMK2 epithelial cells (MTT, 72 h); format: cell-based; details: Macaca mulatta, LLCMK2 kidney epithelial cells, pH 7.2, LLCMK2, 50% inhibition of growth
Protocol: (§1) All the novel trifluoromethylated pyrazoles derivatives 2a–f, 3a–f, and 4a–f were evaluated against the promastigote form of L. amazonensis and the epimastigote form of T. cruzi. The results are reported as the concentration causing a 50% inhibition in cell growth (IC50). Additionally, the toxicity of compounds was evaluated against two different cell lines: epithelial cell LLCMK2 and macrophages J774A1. The antiproliferative and cytotoxic activities are shown in Table 2 , as well as the calculated selectivity index (SI).
(§2) 2.4. Antiproliferative activity […]
(§3) Cytotoxicity activity was determined in LLCMK2 (epithelial cells of kidney of Macaca
(§4) mulatta) cells and J774A1 macrophages. LLCMK2 (epithelial cells of kidney of Macaca mulatta) cells
(§5) were cultured in Dulbecco’s modified Eagle’s medium (DMEM, pH 7.2) supplemented with 10% FBS
(§6) at 37 °C in a 5% CO2 atmosphere. J774A1 macrophages were cultured in RPMI-1640 (pH 7.2) medium
(§7) supplemented with 10% FBS at 37 °C in a 5% CO2 atmosphere.
(§8) 2.4.2. Dilution of compounds
(§9) Stock solutions of the compounds were prepared in DMSO and then diluted in the respective
(§10) medium. The groups (controls and treated) were tested with DMSO concentrations below 1%, with
(§11) 2.4.3. Antiproliferative assay […]
(§12) 2.4.4. Cytotoxicity assay
(§13) LLCMK2 cells (2.5 × 10^5 cells/mL) suspension was prepared in DMEM medium supplemented
(§14) with 10% FBS and added to 96-well plates. Then, the plates were incubated at 37 °C in a
(§15) CO2 atmosphere for 24h to obtain confluent cell growth. After incubation, cells were treated or not
(§16) with different concentrations of compounds diluted in DMEM for 72 h. Macrophage (5 × 10^5 cells/mL)
(§17) suspension was prepared in RPMI-1640 medium supplemented with 10% FBS and added to 96-well
(§18) plates. Then, the plates were incubated at 37 °C in a CO2 atmosphere for 24h to obtain confluent cell
(§19) growth. After incubation, cells were treated or not with different concentrations of compounds diluted
(§20) in RPMI-1640 for 48h. After treatment, medium was removed and cells were incubated with MTT (2
(§21) mg/mL) for 4h. Then, DMSO was added for solubilization of the formazan and analyzed with a reading
(§22) microplate reader (BIO-TEK PowerWave XS spectrophotometer) at 392 nm. The percentage of viable
(§23) cells was calculated in relation to the control to determine the cytotoxic concentration to 50% of the […]

[2] = system: promastigote form of Leishmania amazonensis; experiment: Antiproliferative assay, promastigote form of Leishmania amazonensis (XTT, 72 h); format: cell-based; details: for SI L-M, selectivity index (Macrophages CC50/L. amazonensis IC50): J774A1 vs promastigotes; for SI L-E, selectivity index (Epithelial CC50/L. amazonensis IC50): LLCMK2 vs promastigotes; for IC50: Leishmania amazonensis, promastigote form, 72 h, mean ± standard deviation, read-out: L. amazonensis IC50
Protocol: as §1
(§24) 2.4. Antiproliferative activity
(§25) Promastigotes forms of Leishmania amazonensis (strain WHOM/ BR/75/JOSEFA) were
(§26) cultured in Warren medium (brain heart infusion, hemin, and folic acid; pH 7.4) supplemented with
(§27) 10% fetal bovine serum (FBS) at 25 °C. Epimastigote forms of Trypanosoma cruzi (Y strain) were
(§28) cultured in LIT medium (liver infusion tryptose; hemim, and folic acid; pH 7.4) supplemented with
as §3, §4, §5, §6, §7, §8, §9, §10
(§29) 2.4.3. Antiproliferative assay
(§30) Promastigote forms (1 × 10^6 parasites/mL) were cultured in 96-well plates in the presence and
(§31) absence of different concentrations of compounds diluted in Warren medium supplemented with 10%
(§32) FBS and incubated for 72h. Epimastigote forms (1 × 10^6 parasites/mL) were cultured in 96 -well plates
(§33) in the presence and absence of different concentrations of compounds diluted in LIT medium
(§34) supplemented with 10% FBS and incubated for 96h. After treatment, the parasites were incu bated with
(§35) a solution of 2,3 -bis (2 -methoxy -4-nitro -5-sulfophenyl) -2H-tetrazolium -5-carboxanilide (XTT; 0.5
(§36) mg/mL) and phenazine methanesulfonate activator (PMS; 0.06 mg/mL) in PBS for 4h. Then, the
(§37) absorbance was read in a microplate reader (Bio Tek - Power Wave XS) at 450 nm. The percentage of
(§38) viable parasites was calculated in relation to the control in order to determine the concentration that
(§39) inhibits 50% of the protozoa (IC 50).
as §12, §13, §14, §15, §16, §17, §18, §19, §20, §21

[3] = Cytotoxicity assay in J774A1 macrophages (MTT, 48 h); format: cell-based; details: mouse, pH 7.2, J774A1, 50% inhibition of growth
Protocol: as §1, §2, §3, §4, §5, §6, §7, §8, §9, §10, §11, §12, §13, §14, §15, §16, §17, §18, §19, §20, §21, §22, §23

[4] = system: epimastigote form of Trypanosoma cruzi; experiment: Antiproliferative assay, epimastigote form of Trypanosoma cruzi (XTT, 96 h); format: cell-based; details: for SI T-M, selectivity index (Macrophages CC50/T. cruzi IC50): J774A1 vs epimastigotes; for SI T-E, selectivity index (Epithelial CC50/T. cruzi IC50): LLCMK2 vs epimastigotes; for IC50: Trypanosoma cruzi, epimastigote form, 96 h, mean ± standard deviation, read-out: T. cruzi IC50
Protocol: as §1, §24, §25, §26, §27, §28, §3, §4, §5, §6, §7, §8, §9, §10, §29, §30, §31, §32, §33, §34, §35, §36, §37, §38, §39, §12, §13, §14, §15, §16, §17, §18, §19, §20, §21

melting point [°C] | IC50 [4] [µM] | Compound | CC50 at 72 h [1] [µM] | SI L-M, selectivity index (Macrophages CC50/L. amazonensis IC50) [2] | SI L-E, selectivity index (Epithelial CC50/L. amazonensis IC50) [2] | IC50 [2] [µM] | CC50 at 48 h [3] [µM] | SI T-M, selectivity index (Macrophages CC50/T. cruzi IC50) [4] | SI T-E, selectivity index (Epithelial CC50/T. cruzi IC50) [4]
226.5 | 45.7 ± 5 | NC(=S)NN=Cc1c(C(F)(F)F)nn(-c2ccccc2)c1-c1ccc([N+](=O)[O-])cc1 [2a, 4-[(2-carbamothioyl-hydrazinylidene)methyl]-3-trifluoromethyl-5-(4-nitrophenyl)-1-phenyl-1H-pyrazole] | 303 ± 5.8 | 9.10 | 11.33 | 26.7 ± 1.4 | 243 ± 3.6 | 5.32 | 6.62
221.18 | 69.3 ± 2.9 | NC(=S)NN=Cc1c(C(F)(F)F)nn(-c2ccccc2)c1-c1ccc(F)cc1 [2b, 4-[(2-carbamothioyl-hydrazinylidene)methyl]-3-trifluoromethyl-5-(4-fluorophenyl)-1-phenyl-1H-pyrazole] | 345.7 ± 2.6 | 4.09 | 6.97 | 49.6 ± 3.8 | 203 ± 5.9 | 2.92 | 4.99
225.37 | 49.2 ± 3.1 | NC(=S)NN=Cc1c(C(F)(F)F)nn(-c2ccccc2)c1-c1ccc(Cl)cc1 [2c, 4-[(2-carbamothioyl-hydrazinylidene)methyl]-5-(4-chlorophenyl)-3-trifluoromethyl-1-phenyl-1H-pyrazole] | 377 ± 5 | 9.02 | 8.45 | 44.6 ± 6.2 | 402 ± 8.3 | 8.17 | 7.66
 | 30.3 ± 5.2 | NC(=S)NN=Cc1c(C(F)(F)F)nn(-c2ccccc2)c1-c1ccc(Br)cc1 [2d, 5-(4-bromophenyl)-4-[(2-carbamothioyl-hydrazinylidene)methyl]-3-trifluoromethyl-1-phenyl-1H-pyrazole] | 148 ± 6.9 | 8.98 | 7.85 | 18.9 ± 1.1 | 170 ± 7.2 | 5.60 | 4.89
211.27 | 83.1 ± 5.3 | NC(=S)NN=Cc1c(C(F)(F)F)nn(-c2ccccc2)c1-c1ccccc1 [2e, 4-[(2-carbamothioyl-hydrazinylidene)methyl]-3-trifluoromethyl-1,5-diphenyl-1H-pyrazole] | 394 ± 7.1 | 6.47 | 6.39 | 61.7 ± 2.9 | 400 ± 6.6 | 4.81 | 4.75
212.65 | 29.7 ± 2.6 | COc1ccc(-c2c(C=NNC(N)=S)c(C(F)(F)F)nn2-c2ccccc2)cc1 [2f, 4-[(2-carbamothioyl-hydrazinylidene)methyl]-3-trifluoromethyl-5-(4-methoxyphenyl)-1-phenyl-1H-pyrazole] | 155 ± 2.6 | 8.04 | 6.91 | 22.4 ± 3 | 180 ± 4.7 | 6.06 | 5.21
190.7 | 24.1 ± 0.8 | CSC(N)=NN=Cc1c(C(F)(F)F)nn(-c2ccccc2)c1-c1ccc([N+](=O)[O-])cc1 [3a] | 176 ± 5.9 | 12.10 | 9.64 | 18.3 ± 2.4 | 221 ± 3.1 | 9.19 | 7.32
145.5 | 39.9 ± 3.2 | CSC(N)=NN=Cc1c(C(F)(F)F)nn(-c2ccccc2)c1-c1ccc(F)cc1 [3b] | 119 ± 3 | 5.90 | 3.48 | 34.3 ± 4.7 | 202 ± 3.4 | 5.07 | 2.99
188.5 | 37.2 ± 4.8 | CSC(N)=NN=Cc1c(C(F)(F)F)nn(-c2ccccc2)c1-c1ccc(Cl)cc1 [3c] | 297 ± 6.1 | 9.80 | 9.68 | 30.7 ± 2.2 | 301 ± 3.9 | 8.09 | 7.99
 | 25.7 ± 2.5 | CSC(N)=NN=Cc1c(C(F)(F)F)nn(-c2ccccc2)c1-c1ccc(Br)cc1 [3d] | 114 ± 3.8 | 10.55 | 8.20 | 13.9 ± 0.6 | 147 ± 3.6 | 5.71 | 4.44
165.65 | 62.4 ± 3.8 | CSC(N)=NN=Cc1c(C(F)(F)F)nn(-c2ccccc2)c1-c1ccccc1 [3e] | 202 ± 6.2 | 7.30 | 4.53 | 44.7 ± 5 | 326 ± 4.5 | 5.23 | 3.25
 | 19.1 ± 0.9 | COc1ccc(-c2c(C=NN=C(N)SC)c(C(F)(F)F)nn2-c2ccccc2)cc1 [3f] | 101 ± 2.4 | 8.65 | 7.13 | 14.2 ± 1.1 | 123 ± 3.1 | 6.43 | 5.30
236.7 | 29 ± 2.7 | Nc1nnc(-c2c(C(F)(F)F)nn(-c3ccccc3)c2-c2ccc([N+](=O)[O-])cc2)s1 [4a, 4-[(2-amino)-1,3,4-thiadiazo-5-yl]-3-trifluoromethyl-5-(4-nitrophenyl)-1-phenyl-1H-pyrazole] | 211 ± 3.1 | 14.56 | 10.78 | 19.6 ± 1.5 | 285 ± 5.6 | 9.84 | 7.29
 | 65.6 ± 2.9 | Nc1nnc(-c2c(C(F)(F)F)nn(-c3ccccc3)c2-c2ccccc2)s1 [4e, 4-[(2-amino)-1,3,4-thiadiazo-5-yl]-3-trifluoromethyl-1,5-diphenyl-1H-pyrazole] | 264 ± 3.2 | 6.49 | 5.04 | 52.4 ± 3.5 | 340 ± 5.2 | 5.18 | 4.03

Source: paper PMC7576996, “Antiparasitic Behavior of Trifluoromethylated Pyrazole 2-Amino-1,3,4-thiadiazole Hybrids and Their Analogues: Synthesis and Structure-Activity Relationship” (Frontiers in Pharmacology, 2020)
